# Laboratory results published in paper PMC11020070, “Discovery of Protease-Activated Receptor 4 (PAR4)-Tethered Ligand Antagonists Using Ultralarge Virtual Screening” (ACS Pharmacology & Translational Science, 2024).
# Tests used:
# [1] = Modified microsomal clearance assay with or without NADPH, mouse liver microsomes; assay type: in vitro ADME; conditions: for Estimated % Contribution to Metabolism Mouse CYPs/FMOs / Estimated % Contribution to Metabolism Mouse Esterases: MLM, from AUC with/without NADPH vs buffer only; for CLint scaled at 1 µM: mouse, liver microsomes, pH 7.4, MLM, reaction initiated by test compound
# Method: It is of note that the experimental design for the initial round of microsomal clearance assays adds a test compound to microsomes before the reaction is started by the addition of nicotinamide adenine dinucleotide phosphate (NADPH). This design assumes that the major contributing drug-metabolizing enzymes are cytochrome P450s (CYPs). To investigate this further, the experimental design was modified where the reaction was initiated by the addition of a test compound and was carried out in the presence or absence of NADPH. […] By comparison of the measured intrinsic clearance in the presence and absence of NADPH, the contribution of non-CYP450 drug-metabolizing enzymes can be estimated.
# (§1) Mammalian liver microsomes include CYPs, flavin monooxygenases (FMOs), glucuronosyltransferases ([…]), and esterases as part of their enzyme composition. In the presence of NADPH, which serves as a cofactor for CYP- and FMO-dependent reactions, the observed activity can be attributed to these enzymes. Similarly, UGTs require the cofactor uridine diphosphate glucuronic acid (UDPGA). Therefore, when NADPH and UDPGA are absent, any reduction in the compound can be ascribed only to esterase activity or chemical instability. […] This is based on two factors: (1) the stability of the compounds in HP buffer, which is used in the platelet assays, and (2) the low probability of drug metabolism occurring within the platelets themselves. Together, these minimize the chance that any metabolites with distinct PAR4 potencies could confound the results. By comparing the area under the curve of the compound metabolized from the microsomal incubations in the presence or absence of NADPH to the corresponding area under the curve of the buffer-only incubation, the percent contribution of CYPs and FMOs and esterases were estimated (Table S1). The major contributing enzyme toward the metabolism of 12 is esterases in both the human (96%) and mouse (98%). In contrast, the metabolism of 31 was primarily driven by CYPs and FMOs in both HLM (80%) and MLM (88%).
# In separate 96-well plates for each time point, a mixture of 0.1 M potassium phosphate-buffered (pH 7.4), 3 mM MgCl2, and 2.5 mg/mL microsomes were prewarmed at 37 °C for 5 min. Following the preincubation, a 1 μM test compound and 1 mM NADPH (for 3, 7, 15, 25, or 45 min time points) or buffer (for 0 min time point) were added to initiate the reaction. Under standard conditions, reactions were initiated with the addition of NADPH. To delineate the contribution of esterases, some experiments were initiated by the addition of substrate in the presence or absence of NADPH. Plates were incubated at 37 °C under ambient oxygenation. At the respective times, each plate’s reaction was precipitated by the addition of 2 volumes of ice-cold acetonitrile containing an internal standard (carbamazepine, 50 nM). The plates were centrifuged at 4000 rcf (4 °C) for 5 min. The resulting supernatants were transferred and diluted 1:1 (supernatant:water) into new 96-well plates in preparation for LC/MS/MS analysis. Each compound was assayed in triplicate within the same 96-well plate. The in vitro half-life (t1/2, min, eq 1), intrinsic clearance (CLint, mL/min/kg, eq 2), and subsequent predicted hepatic clearance (CLhep, mL/min/kg, eq 3) were determined employing the following equations [drawing 1] 1 [drawing 2] 2 [drawing 3] 3 The estimated percent contribution to metabolism was calculated from the percent substrate lost plots generated from metabolic incubations initiated with the addition of a test compound. Calculations compared the area under the curve (AUC) from conditions in the presence and absence of NADPH and buffer-only (control) conditions (eqs 4 and 5). AUC was calculated by using the trapezoidal method [drawing 4] 4 [drawing 5] 5
# Clint (mL/min/kg) Estimated % Contribution to Metabolism
# Compound Human Mouse Human Mouse +NADPH -NADPH +NADPH -NADPH CYPs/FMOs Esterases CYPs/FMOs Esterases […]
# [2] = Buffer-only incubation (KPI or Tyrode's HP buffer), compound stability; assay type: physicochemical; conditions: potassium phosphate (KPI) or Tyrode's buffer (HP), no microsomes
# Source text: as §1
# Supplem ental Fig ure S5 . Depletion of 12 over time in the presence (ν) or absence (λ) of NADPH. Incubations w e re carried out in the presence of human (A) or mouse (B) li ver microsomes or without microsomes but in either KPI (C) or HP (D) buffer. […] Error bars smaller than the symbols a re not visible. […]
# Supplem ental Figure S6. […] Values a re expressed as percentage of compound remaining at ea ch time compared with time 0 min and represent the mean ± SD (n = 3). […]
# Supplem ental Fig ure S7 . […] Values a re expressed as percentage of compound remaining at ea ch time co mpa red with time 0 min and represent the mean ± SD (n = 3). […]
Estimated % Contribution to Metabolism Mouse CYPs/FMOs [1],Estimated % Contribution to Metabolism Mouse Esterases [1],CLint scaled at 1 µM ([1]; +NADPH),CLint scaled at 1 µM ([1]; -NADPH),loss of compound over time in buffer only [2],SMILES
2%,98%,589 L/h/kg,374 L/h/kg,little loss of compound over time,Cn1nc(C(=O)Nc2n[nH]c(-c3c(F)cccc3F)n2)cc1C1CC1 [Compound 12]
,0%,47.3 L/h/kg,1.67 L/h/kg,little loss of compound over time,O=C(Nc1nc[nH]n1)c1nn(-c2ccccc2)c2c1CCC2 [Compound 17]
88%,12%,626 L/h/kg,1.94 L/h/kg,little loss of compound over time,O=C(Nc1n[nH]c(-c2ccc(F)cc2F)n1)c1nn(-c2ccccc2)c2c1CCCC2 [Compound 31]
